# “Also recorded” adds a separate entry of the source.
# Legend:
# [1] = system: Staphylococcus aureus bacteremia (SAB); assay: Phase 3 study of ceftobiprole vs daptomycin ± aztreonam in complicated SAB (NCT03138733): efficacy; format: in vivo, human; conditions: for DRC-assessed SAB relapses: 4 patients on daptomycin (2 MSSA, 2 MRSA), 2 patients on ceftobiprole (all MSSA); for Overall success rate in patients with high vancomycin MICs of 2-8 mg/L: 16 patients (8 MRSA, 8 MSSA), 7/8 vs 4/8; for Adjusted difference ceftobiprole − daptomycin ± aztreonam (95% CI): DRC overall success at PTE (mITT): Cochran-Mantel-Haenszel weights, adjusted for dialysis status and prior antibacterial treatment use; for Non-inferiority for overall success at PTE (70 days post-randomization): pre-specified −15% non-inferiority margin
# [2] = format: in vivo
# Experimental: Safety population: The safety population consisted of all randomized patients who received any amount/dose of study medication. Patients in the safety population were analyzed according to the first medication actually received.
# Ceftohiprole 500 mg (as 667 mg ceftobiprole medocaril) was administered as a 2-hour intravenous (i.v.) infusion every 6 hours in the first 8 days, and every 8 hours from Day 9 onwards (with dose and/or schedule adjusted in patients with renal impairment). Daptomycin weight-based at 6 mg/kg (up to 10 mg/kg in accordance with institutional standards) administered as 0.5-hour i.v. infusion every 24 hours (with schedule adjusted in patients with renal impairment). Optional aztreonam 1000 mg fixed dose administered as 0.5-hour i.v. infusion every 24 hours (with dose adjusted in patients with renal impairment). The target treatment duration in Part I was 21-28 days of study medication, with a maximum treatment duration of 28 days. The maximum treatment duration In Part 2 was 42 days.
# • 1. All-cause mortality assessed at Day 70 (PTE visit) in the mITT population. • 2. Microbiological cradication assessed by the DRC at Day 70 (PTE visit) in the mITT population. • 3. The overall success rate in the ITT, mITT, and CE populations; • a) at the BOT and PTE (ITT and CE populations only) visits • b) at the EOT and PTE visits, for RIE vs non-IE SAB • c) at the EOT and PTE visits, by renal-function status • 4. Development of new metastatic foci or other complications of SAB after Day 7 assessed in the mITT and CE populations. • 5. Time to S. aureus bloodstream clearance, defined as the elapsed time (days) from randomization to bloodstream clearance, with bloodstream clearance defined as the occurrence of two consecutive study days with blood-culture-negative assessments for S. aureus. • 6. Safety and tolerability based on incidence, type, severity, and relationship to study medication of AEs; and changes in laboratory tests • 7. Pharmacokinetics of ceftobiprole in the PK population
# MSSA = assay: MIC of baseline blood S. aureus isolates: MSSA; format: cell-based, Staphylococcus aureus; conditions: MSSA samples
# Excerpt: (§1) The distribution of ceftobiprole, daptomycin, and aztreonam MICs, including MIC50, MIC90, and MIC range, for blood S. aureus, MRSA, and MSSA, was tabulated for the mITT and CE populations. The shifts in ceftobiprole, daptomycin, and aztreonam MIC results from baseline to PTE, and the shifts in ceftobiprole, daptomycin, and aztreonam MIC results from baseline to the maximum value post-baseline by baseline infecting organisms (i.e., pathogens), were presented overall and by geographical region in the mITT and CE populations.
# MRSA = assay: MIC of baseline blood S. aureus isolates: MRSA; format: cell-based, Staphylococcus aureus; conditions: MRSA samples
# Excerpt: as §1
# S. aureus = assay: On-treatment MIC shifts and MIC vs clinical failure, blood S. aureus; format: cell-based, Staphylococcus aureus; conditions: MIC of the drug received, daptomycin: three patients (two MSSA, one MRSA)
# Excerpt: as §1
# [3] = system: acute bacterial skin and soft tissue infections; conditions: TARGET Phase 3; Overcash et al.; cited from earlier work
# [4] = prolonged (>4 weeks) ceftobiprole treatment; cited from earlier work
# [5] = mITT, Cochran-Mantel-Haenszel adjusted
# [6] = mITT, Cochran-Mantel-Haenszel adjusted, listed as ceftobiprole
# [7] = mITT, S. aureus (overall), bloodstream clearance = two consecutive study days with negative blood culture
structure (smiles),measurement,setting,value
Nc1nc(/C(=N/O)C(=O)N[C@@H]2C(=O)N3C(C(=O)O)=C(/C=C4\CCN([C@@H]5CCNC5)C4=O)CS[C@H]23)ns1 [Ceftobiprole],DRC-assessed SAB relapses,[1],1.1%
same,Overall success rate in patients with high vancomycin MICs of 2-8 mg/L,[1],87.5%
same,Adjusted difference ceftobiprole − daptomycin ± aztreonam (95% CI): DRC overall success at PTE (CE),"[1]; CE, Cochran-Mantel-Haenszel adjusted",0.6% (−8.3. 9.5)
same,"Overall success at the PTE visits, patients with MRSA of USA clonal strain type","[1]; MRSA isolates typed by MLST, spa and SCCmec, 16/21 vs 16/23",76.2%
same,Investigator-assessed overall success at the PTE visit,[1]; mITT,73.5%
same,Patients who died through the PTE visit,[1]; mITT,9.0%
same,Patients who experienced new metastatic foci or other complications of SAB after Day 7,[1]; mITT,5.8%
same,Patients with microbiological eradication at the PTE visit,[1]; mITT,82.0%
same,Adjusted proportion difference: investigator-assessed overall success at PTE,"[1]; mITT, 95% CI: −4.2, 13.5",4.7%
same,Responders (overall success at the PTE visit),"[1]; mITT, 70 days post-randomization",69.8%
same,Adjusted difference ceftobiprole − daptomycin ± aztreonam (95% CI): ACM through PTE,[1]; [5],"−0.5% (−6.2, 5.2)"
same,Adjusted difference ceftobiprole − daptomycin ± aztreonam (95% CI): death due to SAB (DRC),[1]; [5],"0.4% (−3.2, 4.0)"
same,Adjusted difference ceftobiprole − daptomycin ± aztreonam (95% CI): microbiological response at PTE,[1]; [5],"5.1% (−2.9, 13.0)"
same,Adjusted difference ceftobiprole − daptomycin ± aztreonam (95% CI): new metastatic foci or other complications of SAB after Day 7,[1]; [5],"0.1% (−4.6, 4.8)"
same,Adjusted difference ceftobiprole − daptomycin ± aztreonam (95% CI): ACM through PTE,[1]; [6],−0.5%
same,Adjusted difference ceftobiprole − daptomycin ± aztreonam (95% CI): microbiological response at PTE,[1]; [6],5.1%
same,Adjusted difference ceftobiprole − daptomycin ± aztreonam (95% CI): new metastatic foci or other complications of SAB after Day 7,[1]; [6],0.1%
same,Adjusted difference ceftobiprole − daptomycin ± aztreonam (95% CI): DRC overall success at PTE (mITT),[1]; mITT,"2.0% (−7.1, 11.1)"
same,Adjusted difference ceftobiprole − daptomycin ± aztreonam (95% CI): DRC overall success at PTE (mITT),"[1]; mITT, listed as ceftobiprole",2.0%
same,Median time (days) clearance (95% CI),"[1]; mITT, MRSA",5 days
same,Patients with clearance achieved,"[1]; mITT, MRSA",93.3%
same,Median time (days) clearance (95% CI),"[1]; mITT, MSSA",3 days
same,Patients with clearance achieved,"[1]; mITT, MSSA",94.3%
same,Median time (days) clearance (95% CI),"[1]; mITT, S. aureus (overall)",4 days
same,Patients with clearance achieved,[1]; [7],94.2%
same,"Time (days) to S. aureus bloodstream clearance, Median (95% CI)","[1]; mITT, Table 1","4 (3, 5) days"
same,Non-inferiority for overall success at PTE (70 days post-randomization),[1]; mITT,non-inferiority of ceftobiprole
same,Non-inferiority for overall success at PTE (70 days post-randomization),"[1]; mITT, listed as ceftobiprole",non-inferiority of ceftobiprole to daptomycin±aztreonam; also recorded: non-inferior to daptomycin
same,"Response rate (primary endpoint), non-white patients","[1]; subgroup analysis, 5/10 vs 5/6",50.0%
same,"Response rate (primary endpoint), age group of 18-34 years","[1]; subgroup analysis, 17/20 vs 11/19",85.0%
same,"AE anemia, patients","[2]; human, in vivo",11.0%
same,"AE gamma-glutamyl-transferase increased, patients","[2]; human, in vivo",6.3%
same,"AE nausea, patients","[2]; human, in vivo",10.5%
same,Adverse events leading to discontinuation,"[2]; human, in vivo",9.4%
same,Drug-related AEs leading to discontinuation,"[2]; human, in vivo",4.7%
same,Drug-related AEs leading to discontinuation: allergy-type events,"[2]; human, in vivo",4 n
same,Drug-related AEs leading to discontinuation: hepatic function test abnormalities,"[2]; human, in vivo",1 n
same,Drug-related AEs leading to discontinuation: leukopenia,"[2]; human, in vivo",1 n
same,Drug-related AEs leading to discontinuation: nausea/vomiting,"[2]; human, in vivo",4 n
same,Drug-related AEs leading to discontinuation: seizure,"[2]; human, in vivo",1 n
same,Patients who experienced a serious adverse event (SAE),"[2]; human, in vivo","18,8%"
same,Patients who experienced a severe AE,"[2]; human, in vivo",15.2%
same,Patients who experienced an AE,"[2]; human, in vivo",63.4%
same,"Study treatment discontinuation, reason non-related AE","[2]; human, in vivo",3.2%
same,"Study treatment discontinuation, reason related AE","[2]; human, in vivo",4.8%
same,Study-drug-related AEs,"[2]; human, in vivo",13.1%
same,"Study discontinuation, reason death",[2]; mITT population,9.0%
same,"Study treatment discontinuation, reason death",[2]; mITT population,4.8%
same,Isolates at MIC 0.25 mg/L,MSSA,51%
same,Isolates at MIC 0.5 mg/L,MSSA,48%
same,Isolates at MIC either 0.25 mg/L or 0.5 mg/L,MSSA,99%
same,Isolates at MIC 0.5 mg/L,MRSA,14%
same,Isolates at MIC 1 mg/L,MRSA,58%
same,Isolates at MIC 2 mg/L,MRSA,28%
same,"On-treatment increases in MICs by ≥four-fold, patients",S. aureus; listed as cefobiprole,No on-treatment increases
same,Early clinical response and investigator-assessed clinical success vs vancomycin and aztreonam,[3],non-inferior to vancomycin and aztreonam
same,Risk of convulsions,[4],potential for an increased risk of convulsions
"CCCCCCCCCC(=O)N[C@@H](Cc1c[nH]c2ccccc12)C(=O)N[C@H](CC(N)=O)C(=O)N[C@@H](CC(=O)O)C(=O)N[C@@H]1C(=O)NCC(=O)N[C@@H](CCCN)C(=O)N[C@@H](CC(=O)O)C(=O)N[C@H](C)C(=O)N[C@@H](CC(=O)O)C(=O)NCC(=O)N[C@H](CO)C(=O)N[C@@H]([C@H](C)CC(=O)O)C(=O)N[C@@H](CC(=O)c2ccccc2N)C(=O)O[C@@H]1C [Daptomycin, reference compound]",DRC-assessed SAB relapses,[1],3.0%
same,Overall success rate in patients with high vancomycin MICs of 2-8 mg/L,[1],50.0%
same,Median time (days) clearance (95% CI),"[1]; mITT, MRSA",5 days
same,Patients with clearance achieved,"[1]; mITT, MRSA",87.8%
same,Median time (days) clearance (95% CI),"[1]; mITT, MSSA",4 days
same,Patients with clearance achieved,"[1]; mITT, MSSA",95.2%
same,Median time (days) clearance (95% CI),"[1]; mITT, S. aureus (overall)",4 days
same,Patients with clearance achieved,[1]; [7],92.9%
same,Drug-related AEs leading to discontinuation: cosinophilic pneumonia,[2]; Safety population,2 n
same,Drug-related AEs leading to discontinuation: myopathy,[2]; Safety population,1 n
same,Tolerability / safety in patients with complicated SAB,[2]; in vivo,well tolerated
same,Isolates at MIC 0.25 mg/L,MSSA,28%
same,Isolates at MIC 0.5 mg/L,MSSA,71%
same,Isolates at MIC either 0.25 mg/L or 0.5 mg/L,MSSA,99%
same,Isolates at MIC 0.25 mg/L,MRSA,22%
same,Isolates at MIC 0.5 mg/L,MRSA,76%
same,Isolates at MIC 1 mg/L,MRSA,2%
same,"On-treatment increases in MICs by ≥four-fold, patients",S. aureus,1.5%

# From patent publication US20240131034A1, “METHODS OF TREATING STAPHYLOCOCCUS AUREUS BACTEREMIA INFECTIONS” (Basilea Pharmaceutica International AG, Allschwil, priority 2022, published 2024)
